Reference: ChEMBL document CHEMBL1268971, “4,5-Dihydro-1H-pyrazolo[4,3-h]quinazolines as potent and selective Polo-like kinase 1 (PLK1) inhibitors” (Bioorg Med Chem Lett, 2010)
≈ marks a conversion by molar mass, not a printed value. Calls of active or inactive are those of the source. The calls are words filed in the database; no cut-off is given here.

What was measured:
Mus musculus [1] = test: Toxicity in CD1 mouse xenografted with human HCT116 cells assessed as reversible body weight loss at 30 mg/kg, iv BID administered on day 1, 2 post-implantation in weekly schedule of 3 cycles measured on day 32; conditions: in vivo
HCT-116 [2] = test: Antiproliferative activity against human HCT116 cells after 72 hrs by CellTiter-Glo assay; assay type: functional, cell-based; conditions: HCT-116, 72 h
A2780 [3] = test: cells; conditions: Homo sapiens, A2780, 72 h
[4] = molecular target: ALK tyrosine kinase receptor (Homo sapiens, UniProt Q9UM73); test: Inhibition of ALK
NCI-H1993 = test: Antiproliferative activity against human NCI-H1993 cells after 72 hrs by CellTiter-Glo assay; assay type: functional, cell-based; conditions: NCI-H1993, 72 h
[5] = molecular target: T1, Receptor-type tyrosine-protein kinase FLT3 (Homo sapiens, UniProt P36888); test: Inhibition of FLT3
T1 sequence (P36888 whole entry): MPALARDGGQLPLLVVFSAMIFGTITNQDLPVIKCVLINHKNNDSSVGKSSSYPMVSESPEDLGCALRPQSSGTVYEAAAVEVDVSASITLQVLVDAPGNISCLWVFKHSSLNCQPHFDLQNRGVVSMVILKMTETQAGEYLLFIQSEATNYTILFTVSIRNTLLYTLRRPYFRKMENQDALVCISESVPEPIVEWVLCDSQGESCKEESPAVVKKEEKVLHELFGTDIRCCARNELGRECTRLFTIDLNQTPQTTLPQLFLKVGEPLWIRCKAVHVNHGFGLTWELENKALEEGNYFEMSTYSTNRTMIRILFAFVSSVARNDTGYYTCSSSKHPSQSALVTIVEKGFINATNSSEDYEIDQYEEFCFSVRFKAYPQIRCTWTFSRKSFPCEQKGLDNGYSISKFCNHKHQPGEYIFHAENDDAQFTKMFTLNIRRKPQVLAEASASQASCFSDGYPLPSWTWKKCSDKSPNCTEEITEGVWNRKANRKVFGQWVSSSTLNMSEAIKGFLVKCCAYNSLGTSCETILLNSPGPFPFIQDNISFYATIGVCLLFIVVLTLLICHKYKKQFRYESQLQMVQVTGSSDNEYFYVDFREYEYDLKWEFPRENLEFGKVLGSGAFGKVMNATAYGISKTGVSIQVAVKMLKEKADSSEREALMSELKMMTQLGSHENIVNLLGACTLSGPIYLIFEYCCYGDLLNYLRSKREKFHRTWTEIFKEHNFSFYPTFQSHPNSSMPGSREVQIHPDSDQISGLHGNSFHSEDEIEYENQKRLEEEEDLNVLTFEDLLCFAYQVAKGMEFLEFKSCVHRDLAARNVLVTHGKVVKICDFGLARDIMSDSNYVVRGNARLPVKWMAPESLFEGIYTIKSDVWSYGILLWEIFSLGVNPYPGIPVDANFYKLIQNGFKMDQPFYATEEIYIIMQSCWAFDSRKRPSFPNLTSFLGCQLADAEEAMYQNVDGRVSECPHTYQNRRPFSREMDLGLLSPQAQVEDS

[6] = Antiproliferative activity against human KMS11 cells after 72 hrs by CellTiter-Glo assay; assay type: functional, cell-based; conditions: KMS-11, 72 h
A2780 [7] = test: Antiproliferative activity against […] human A2780 cells after 72 hrs by CellTiter-Glo assay; assay type: functional, cell-based; conditions: A2780, 72 h
LoVo = test: Antiproliferative activity against human LoVo cells after 72 hrs by CellTiter-Glo assay; assay type: functional, cell-based
HCT-116 [8] = test: Induction of apoptosis in human HCT116 cells assessed as induction of PARP cleavage at 0.005 to 0.5 uM after 24 hrs; assay type: functional, cell-based
[9] = molecular target: Serine/threonine-protein kinase PLK3 (Homo sapiens, UniProt Q9H4B4); test: Inhibition of PLK3
[10] = Antiproliferative activity against human 1A9PTX22 cells after 72 hrs by CellTiter-Glo assay; assay type: functional, cell-based; conditions: 1A9/ptx-22, 72 h
[11] = Clearance in CD1 mouse at 10 mg/kg, iv administered as single dose by LC/MS/MS analysis; assay type: ADME, organism-based; set-up: dose 10 mg/kg, route intravenous; conditions: in vivo
[12] = Antiproliferative activity against human A2780/ADR cells after 72 hrs by CellTiter-Glo assay; assay type: functional, cell-based
U2OS [13] = test: Induction of cell cycle arrest in human U2OS cells assessed as accumulation of pSer10 histone H3-positive cells at 260 nM after 24 hrs by array scan assay
[14] = Intrinsic clearance in human liver microsomes; assay type: ADME, Microsome
[15] = Solubility of the compound at pH 7; assay type: physicochemical; conditions: buffer
[16] = Solubility of the compound at 105 Tween 80; assay type: physicochemical
A2780 [17] = test: Induction of cell cycle arrest in human A2780 cells assessed as accumulation at G2/M phase at 0.005 to 0.5 uM after 24 hrs; assay type: functional, cell-based
Mus musculus [18] = test: Toxicity in CD1 mouse xenografted with human A2780 cells assessed as reversible body weight loss at 30 mg/kg, iv BID administered on day 1, 2, 3 post-implantation measured on day 12; assay type: organism-based; set-up: dose 30 mg/kg, route intravenous; conditions: in vivo
HCT-116 [19] = test: Antitumor against human HCT116 cells xenografted in CD1 mouse assessed as tumor growth inhibition at 60 mg/kg, po daily administered on day 1, 2, 3 post-implantation for 2 cycles; conditions: HCT-116, po, read-out: TGI
U2OS [20] = test: Induction of cell cycle arrest in human U2OS cells assessed as pSer46 TCTP signal inhibition of after 1 hr by array scan assay; assay type: functional, cell-based
[21] = Oral bioavailability in CD1 mouse at 10 mg/kg administered as single dose by LC/MS/MS analysis; assay type: ADME, organism-based; conditions: in vivo
PANC-1 = test: Antiproliferative activity against human PANC1 cells after 72 hrs by CellTiter-Glo assay; assay type: functional, cell-based; conditions: PANC-1, 72 h
A2780 [22] = test: Antitumor against human A2780 cells xenografted in CD1 mouse assessed as tumor growth inhibition at 30 mg/kg, iv BID administered on day 1, 2, 3 post-implantation measured on day 12; assay type: functional; conditions: read-out: TGI
[23] = Permeability of the compound by PAMPA; assay type: ADME
[24] = Inhibition of casein kinase 2
[25] = Terminal half life in CD1 mouse at 10 mg/kg, iv administered as single dose by LC/MS/MS analysis; assay type: ADME, organism-based; set-up: dose 10 mg/kg, route intravenous; conditions: in vivo, read-out: beta t1/2 (converted)
HL-60 = test: Antiproliferative activity against human HL60 cells after 72 hrs by CellTiter-Glo assay; assay type: functional, cell-based; conditions: HL-60, 72 h
[26] = AUC (0 to infinity) in CD1 mouse at 10 mg/kg, iv administered as single dose by LC/MS/MS analysis; assay type: ADME, organism-based; set-up: time infinity, dose 10 mg/kg, route intravenous; conditions: plasma
HCT-116 [27] = test: Antitumor against human HCT116 cells xenografted in CD1 mouse assessed as tumor growth inhibition at 30 mg/kg, iv BID administered on day 1, 2 post-implantation in weekly schedule of 3 cycles measured on day 32; assay type: functional; conditions: read-out: TGI
[28] = Terminal half life in CD1 mouse at 10 mg/kg, po administered as single dose by LC/MS/MS analysis; assay type: ADME, organism-based; set-up: dose 10 mg/kg, route oral; conditions: in vivo, read-out: beta t1/2 (converted)

Sequence of Serine/threonine-protein kinase PLK3 (Q9H4B4 whole entry): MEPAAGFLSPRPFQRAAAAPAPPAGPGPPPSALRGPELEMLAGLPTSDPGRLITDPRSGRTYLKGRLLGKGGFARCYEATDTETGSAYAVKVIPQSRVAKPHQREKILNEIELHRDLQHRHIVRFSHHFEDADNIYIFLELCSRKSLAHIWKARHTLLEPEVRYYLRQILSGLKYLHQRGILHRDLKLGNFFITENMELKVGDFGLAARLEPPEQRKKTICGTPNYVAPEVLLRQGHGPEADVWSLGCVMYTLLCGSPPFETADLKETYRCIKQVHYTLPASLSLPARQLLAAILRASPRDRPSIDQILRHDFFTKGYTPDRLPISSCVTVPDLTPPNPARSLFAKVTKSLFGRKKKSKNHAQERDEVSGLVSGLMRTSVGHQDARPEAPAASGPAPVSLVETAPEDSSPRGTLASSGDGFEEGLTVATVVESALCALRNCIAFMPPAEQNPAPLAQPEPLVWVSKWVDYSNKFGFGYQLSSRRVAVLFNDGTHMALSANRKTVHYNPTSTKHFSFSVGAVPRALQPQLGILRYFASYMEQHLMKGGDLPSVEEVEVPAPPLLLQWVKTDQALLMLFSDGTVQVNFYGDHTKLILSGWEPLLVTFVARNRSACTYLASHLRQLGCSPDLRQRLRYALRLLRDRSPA
Sequence of ALK tyrosine kinase receptor (Q9UM73 whole entry): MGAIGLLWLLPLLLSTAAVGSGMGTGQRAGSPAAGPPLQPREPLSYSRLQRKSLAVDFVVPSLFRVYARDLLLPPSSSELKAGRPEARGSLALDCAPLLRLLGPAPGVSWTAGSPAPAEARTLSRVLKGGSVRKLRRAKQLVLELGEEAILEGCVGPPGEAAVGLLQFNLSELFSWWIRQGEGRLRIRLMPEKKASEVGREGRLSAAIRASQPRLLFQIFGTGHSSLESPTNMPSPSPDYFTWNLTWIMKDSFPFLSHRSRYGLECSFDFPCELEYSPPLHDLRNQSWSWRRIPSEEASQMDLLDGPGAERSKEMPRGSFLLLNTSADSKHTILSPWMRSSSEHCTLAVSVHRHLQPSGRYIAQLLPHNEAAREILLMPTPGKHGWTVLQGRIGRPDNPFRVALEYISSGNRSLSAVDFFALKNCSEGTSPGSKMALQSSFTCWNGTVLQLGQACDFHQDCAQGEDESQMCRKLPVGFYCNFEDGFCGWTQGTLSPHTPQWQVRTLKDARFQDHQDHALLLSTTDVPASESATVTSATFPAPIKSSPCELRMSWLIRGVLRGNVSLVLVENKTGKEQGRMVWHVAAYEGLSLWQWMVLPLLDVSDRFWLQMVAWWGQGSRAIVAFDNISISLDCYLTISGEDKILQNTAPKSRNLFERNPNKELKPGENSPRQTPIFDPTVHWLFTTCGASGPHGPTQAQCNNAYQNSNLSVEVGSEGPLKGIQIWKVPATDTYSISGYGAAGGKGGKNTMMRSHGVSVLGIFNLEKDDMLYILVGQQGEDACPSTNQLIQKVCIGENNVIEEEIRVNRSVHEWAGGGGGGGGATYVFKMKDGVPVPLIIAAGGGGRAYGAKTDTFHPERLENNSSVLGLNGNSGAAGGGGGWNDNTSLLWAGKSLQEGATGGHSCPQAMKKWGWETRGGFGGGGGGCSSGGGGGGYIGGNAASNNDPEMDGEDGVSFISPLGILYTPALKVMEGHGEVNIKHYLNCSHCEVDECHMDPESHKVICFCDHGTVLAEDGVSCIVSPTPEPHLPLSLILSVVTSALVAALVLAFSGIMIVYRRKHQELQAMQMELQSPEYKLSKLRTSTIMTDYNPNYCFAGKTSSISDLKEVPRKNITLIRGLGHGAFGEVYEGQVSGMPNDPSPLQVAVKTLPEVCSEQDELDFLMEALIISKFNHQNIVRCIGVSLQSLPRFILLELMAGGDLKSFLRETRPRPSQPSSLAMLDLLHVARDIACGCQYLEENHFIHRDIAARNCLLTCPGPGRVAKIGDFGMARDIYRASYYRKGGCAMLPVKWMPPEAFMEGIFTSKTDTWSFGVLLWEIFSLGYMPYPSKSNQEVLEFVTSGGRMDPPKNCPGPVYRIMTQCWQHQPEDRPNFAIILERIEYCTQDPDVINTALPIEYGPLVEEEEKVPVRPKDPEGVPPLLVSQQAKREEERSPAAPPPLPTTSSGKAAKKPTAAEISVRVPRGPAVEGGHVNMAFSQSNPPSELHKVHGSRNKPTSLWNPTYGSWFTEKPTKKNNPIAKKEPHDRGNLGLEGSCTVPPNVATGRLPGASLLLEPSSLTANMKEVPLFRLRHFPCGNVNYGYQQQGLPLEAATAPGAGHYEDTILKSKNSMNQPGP

CN1CCN(c2ccc(OC(F)(F)F)c(Nc3ncc4c(n3)-c3c(c(C(N)=O)nn3C)CC4)c2)CC1
Activity (Mus musculus [1]): 14% | IC50 (HCT-116 [2]): 41 nM | IC50 (A2780 [3]): 21 nM | IC50 [4]: > 10000 nM | IC50 (NCI-H1993): 195 nM | IC50 [5]: 1520 nM | IC50 [6]: 14 nM | IC50 (A2780 [7]): 21 nM | IC50 (LoVo): 7 nM | Activity (HCT-116 [8]): Active | IC50 [9]: 1440 nM | IC50 [10]: 38 nM | clearance [11]: 70.2 mL/min/kg | IC50 [12]: 51 nM | Activity (U2OS [13]): 20% | CLint scaled [14]: 25.7 mL/min/kg | solubility [15]: 72 µM (≈ 36.2 µg/mL) | solubility [16]: > 3200 µg/mL | Activity (A2780 [17]): Active | Activity (Mus musculus [18]): 19% | inhibition in vivo at 60 mg/kg (HCT-116 [19]): 70% | IC50 (U2OS [20]): 95 nM | bioavailability [21]: 21% | IC50 (PANC-1): 126 nM | inhibition in vivo at 30 mg/kg (A2780 [22]): 74% | Papp [23]: 50 ×10⁻⁶ cm/s | IC50 [24]: 140 nM | half-life [25]: 0.92 h | IC50 (HL-60): 16 nM | AUC(0-inf) [26]: 4.97 µM·h | inhibition in vivo at 30 mg/kg (HCT-116 [27]): 81% | half-life [28]: 1.44 h
